Results reported in patent publication US7982017B2, “Antibodies recognizing a carbohydrate containing epitope on CD-43 and CEA expressed on cancer cells and methods using same” (BioAlliance C.V., priority 2007, dated 2011).

Columns and labels:
[1] = tested on: Colo205 cells; assay: Apoptosis of Colo205 cells by 5F1 antibodies in combination with Oxaliplatin (24 h, Annexin V / PI); type: cell-based; settings: background subtracted
Protocol: 1.4×10^5 of Colo205 cells were seeded into the wells of 96-well plates. Aliquots of Oxaliplatin reconstituted in 5% glucose solution were prepared freshly and added to each well at the final concentration of 1 and 10 ug/ml, along or in combination with aliquots of purified c5F1-v17, c5F1-v24, c5F1-v25 and control antibodies at the final concentrations of 10 and 30 ug/ml. The treated cells were kept at 37° incubator for 24 h before FACS analysis for apoptosis. For cellular apoptosis assay, Annexin V staining was measured using Annexin-V-FITC Apoptosis Detection Kit (Strong Biotech, Cat. No. AV 250) following the manufacturer's instruction. In brief, the treated cells were harvested and resuspended in Annexin V binding buffer containing Annexin V-FITC at room temperature. After 15 min incubation in the dark, the cells were washed twice with 200 ul of Annexin V binding buffer. Before FACS analysis, 0.5 ul of propidium iodide (PI) was added. All flow cytometric analyses were performed on a BD-LSR flow cytometer (Becton Dickinson) using the Cell Quest software. The Annexin V positive and/or PI positive cells are considered apoptotic cells.

[2] = tested on: COLO 205 cells; assay: Six-hour apoptosis assay (Annexin V / PI, FACS) in COLO 205; type: cell-based; settings: 6 h
Protocol: 1.5×10^5 of COLO 205 cells were seeded into the wells of 96-well plates. Aliquots of purified m5F1, c5F1-v0, c5F1-v15, c5F1-v16 and control antibodies at the concentration ranging from 2 to 32 ug/ml were prepared freshly in culture medium and added to each well. The sample treated with m9E10 and h16C11A were used as isotype control. The treated cells were kept at 37° incubator for 6 h before FACS analysis for apoptosis. For cellular apoptosis assay, Annexin V staining was measured using Annexin-V-FITC Apoptosis Detection Kit (Strong Biotech, Cat. No. AVK250) following the manufacturer's instruction. In brief, the treated cells were harvested and resuspended in Annexin V binding buffer containing Annexin V-FITC at room temperature. After 15 min incubation in the dark, the cells were washed twice with 200 μl of Annexin V binding buffer. Before FACS analysis, 0.25 μg/ml of propidium iodide (PI) was added. All flow cytometric analyses were performed on a BD-LSR flow cytometer (Becton Dickinson) using the Cell Quest software. The Annexin VI positive and/or PI positive cells are considered apoptotic cells.
1.5×10^5 of Colo205 cells were seeded into the wells of 96-well plates. Aliquots of purified m5F1, c5F1, c5F1-v17, c5F1-v24, c5F1-v25 and control antibodies at the concentration ranging from 8 to 32 ug/ml were prepared freshly in culture medium and added to each well. The treated cells were kept at 37° incubator for 6 h before FACS analysis for apoptosis. For cellular apoptosis assay, Annexin V staining was measured using Annexin-V-FITC Apoptosis Detection Kit (Strong Biotech, Cat. No. AV 250) following the manufacturer's instruction. In brief, the treated cells were harvested and resuspended in Annexin V binding buffer containing Annexin V-FITC at room temperature. After 15 min incubation in the dark, the cells were washed twice with 200 ul of Annexin V binding buffer. Before FACS analysis, 0.25 ug/ml of propidium iodide (PI) was added. All flow cytometric analyses were performed on a BD-LSR flow cytometer (Becton Dickinson) using the Cell Quest software. The Annexin VI positive and/or PI positive cells are considered apoptotic cells.

[3] = tested on: COLO 205 cells; assay: Binding assay: flow cytometric binding of 5F1 antibodies to COLO 205 cells; settings: for binding to Colo 205 (words): FIG. 3, 0.125 to 4 ug/ml
Protocol: Purified m5F1, c5F1-v0, c5F1-v15 and c5F1-v16 antibodies at the concentration ranging from 0.125 to 4 ug/ml were added to 1.5×10^5 COLO 205 cells and incubated for 30 min at 4° C., washed for twice with PBS containing 2% FBS and 0.05% NaN3, followed by incubation with 1 μg/ml of corresponding secondary antibodies (R-PE-conjugated goat F(ab′)2 anti-mouse IgG(H+L), Southern Biotech, Cat. No. 1032-09; or R-PE-conjugated goat anti-human IgG, Southern Biotech, Cat. No. 2040-09) at 4° C. for 30 min. At the end of staining, samples were washed twice with PBS containing 2% FBS and 0.05% NaN3 and analyzed by flow cytometer. All flow cytometric analyses were performed on a BD-LSR flow cytometer (Becton Dickinson) using the Cell Quest software.
Purified m5F1, c5F1-v0, c5F1-yl7, c5F1-v24 and c5F1-v25 antibodies at 1 ug/ml were added to 2×10^5 Colo 205 cells and incubated for 30 min at 4° C., washed for twice with PBS containing 1% FBS, followed by incubation with 1 ug/ml of corresponding secondary antibodies (R-PE-conjugated goat F(ab′)2 anti-mouse IgG(H+L), Southern Biotech, Cat. No. 1032-09; or R-PE-conjugated goat anti-human IgG, Southern Biotech, Cat. No. 2040-09) at 4° C. for 30 min. At the end of staining, samples were washed twice with PBS containing 1% FBS and 0.05% NaN3 and analyzed by flow cytometer. All flow cytometric analyses were performed on a BD-LSR flow cytometer (Becton Dickinson) using the Cell Quest software.

Molecule | % apoptosis ([1]; Oxaliplatin 1 ug/ml alone (Antibody 0)) | % apoptosis ([1]; Oxaliplatin 10 ug/ml alone (Antibody 0)) | apoptosis-inducing activity in COLO 205 ([2]; 2 to 32 ug/ml, compared with m5F1) | % of Annexin V and/or PI positive cells ([2]; Table 7, 4 ug/ml) | % of Annexin V and/or PI positive cells ([2]; Table 7, 8 ug/ml) | % of Annexin V and/or PI positive cells ([2]; Table 7, 16 ug/ml) | % of Annexin V and/or PI positive cells ([2]; Table 7, 32 ug/ml) | % of Annexin V and/or PI positive cells ([2]; Table 11 Exp. 1, 8 ug/ml) | % of Annexin V and/or PI positive cells ([2]; Table 11 Exp. 1, 16 ug/ml) | % of Annexin V and/or PI positive cells ([2]; Table 11 Exp. 1, 32 ug/ml) | % of Annexin V and/or PI positive cells ([2]; Table 11 Exp. 2, 8 ug/ml) | % of Annexin V and/or PI positive cells ([2]; Table 11 Exp. 2, 16 ug/ml) | % of Annexin V and/or PI positive cells ([2]; Table 11 Exp. 2, 32 ug/ml) | binding to Colo 205 (words) [3] | binding to Colo 205 (words) ([3]; listed as c5F1v0) | Median Fluorescence Intensity (MFI) ([3]; Table 10, antibodies at 1 ug/ml)
O=C1[O][Pt]2([NH][C@@H]3CCCC[C@H]3[NH]2)[O]C1=O [Oxaliplatin] | 2% | 6% |  |  |  |  |  |  |  |  |  |  |  |  |  | 
c5F1-v0: chimeric 5F1: variable region of murine 5F1 with constant region of human IgG1; heavy chain v0[H], light chain v0[L] |  |  | not as efficient as m5F1 | 33% | 46% | 68% | 78% | 34% | 60% | 70% | 54% | 63% | 69% | bind COLO 205 cells | significant binding | 2760
